Patent publication US20090048160A1, “Antimicrobial activity of bovine bactericidal/permeability-increasing protein (BPI)-derived peptides against Gram-negative bacterial mastitis isolates” (priority 2007, published 2009)
Converted amounts (≈) assume the structure as drawn. Like-named read-outs stand apart in the source and are kept apart here.

Key:
[1] = tested on: Staphylococcus aureus; experiment: microbe, parasite or virus in culture; assay type: cell-based; conditions: ATCC29213; Staphylococcus aureus ATCC 29213; read-out: MIC
Excerpt: (§1) Bacterial isolates of Escherichia coli, Klebsiella pneumonia, Serratia marcescens, Pseudomonas aeruginosa, Enterobacter cloacae, and Enterobacter aerogenes, which were obtained from clinical cases of bovine mastitis, were used to assess the bactericidal activity of peptides in a broth microdilution assay. Isolates were obtained from repositories at Cornell University (gift of Dr. Y. H. Schukken; Quality Milk Production Services Program, Cornell University, Ithaca N.Y.) and the USDA Beltsville Agricultural Research Center. […] A. J. Bramley, Institute for Animal Health, Compton Laboratory, Newbury, England), which was originally isolated from a clinical case of mastitis ([…]. Dairy Res. 43: 205-211) was also used to assess the bactericidal activity of the peptides in biological fluids. Reference strains of E. coli (ATCC 25922) and Staphylococcus aureus (ATCC 29213) were obtained from a commercial source (American Type Culture Collection (ATCC), Manassas, Va.). To obtain fresh inoculums for evaluation, a sterile loop of each bacterial glycerol stock was streaked on a blood agar plate. After an overnight incubation at 35° C., a single uniform colony was picked and sub-passaged by streaking on a new blood agar plate and incubating the plate overnight at 35° C. To evaluate the antimicrobial activity of the peptides against various clinical mastitis bacterial isolates, the minimum inhibitory concentration (MIC) and the minimum bactericidal concentration (MBC) of these peptides against the isolates were determined using a standardized broth microdilution assay. In addition to the mastitis isolates, E. coli (ATCC 25922) and S. aureus (ATCC 29213) reference strains were evaluated. […] The assays were performed in accordance with Clinical and Laboratory Standards Institute (CLSI) [formerly National Committee for Clinical Laboratory Standards (NCCLS)] guidelines (National Committee for Clinical Laboratory Standards. 1999. Methods for Determining Bacterial Activity of Antimicrobial Agents: Approved Guideline. Wayne, Pa.; National Committee for Clinical Laboratory Standards. 2002. Performance Standards for Antimicrobial Disk and Dilution Susceptibility Tests for Bacteria Isolated from Animals: Approved Standard. 2nd Edition, Wayne, Pa.). […] The bacterial suspension was then diluted 100-fold in cation-adjusted Mueller-Hinton broth to reach a final inoculum concentration of 10^6 CFU/ml. […] A negative control column was included in the plate that included 100 μl of broth alone. The plates were incubated for 18 h at 35° C. with ambient air circulation and without shaking. The wells were subsequently inspected for cloudiness and pellet formation using a magnifying glass plate reader. The lowest concentration at which no pellet or cloudiness was apparent in a given well was identified as the MIC. […] The plates were incubated overnight at 35° C. and colonies subsequently enumerated. The MBC values were determined as the lowest concentration at which ≧99.9% of inoculated bacteria were killed. All assays were performed in triplicate and the MIC and MBC range reported.

[2] = tested on: Klebsiella pneumoniae; experiment: microbe, parasite or virus in culture; assay type: cell-based; conditions: Klebsiella pneumoniae, read-out: MIC
Excerpt: as §1

[3] = tested on: Escherichia coli; experiment: microbe, parasite or virus in culture; assay type: cell-based; conditions: Escherichia coli; for MIC: read-out: MIC
Excerpt: as §1

[4] = tested on: Enterobacter cloacae; experiment: microbe, parasite or virus in culture; assay type: cell-based
Excerpt: as §1

[5] = tested on: Serratia marcescens; experiment: microbe, parasite or virus in culture; assay type: cell-based; conditions: Serratia marcescens, read-out: MIC
Excerpt: as §1

[6] = tested on: Pseudomonas aeruginosa; experiment: microbe, parasite or virus in culture; assay type: cell-based; conditions: Pseudomonas aeruginosa, read-out: MIC
Excerpt: as §1

[7] = tested on: bacterial LPS derived from E. coli 0111:B4; experiment: LPS neutralization, Limulus amebocyte lysate (LAL) assay; assay type: biochemical; conditions: 1 ng LPS
Method: FIG. 1 depicts the mean (±S.E.) percent neutralization of bacterial LPS bioactivity as determined with the Limulus amebocyte lysate assay. Increasing concentrations of peptides or polymixin B were incubated with 1 ng of E. coli-derived LPS for 30 min. Following incubation, the amount of free LPS was determined by extrapolation from a standard curve and the percent of bound (neutralized) LPS was calculated.
The ability of the peptides to neutralize LPS was determined using a commercially available Limulus amebocyte lysate (LAL) assay (Cambrex BioScience Walkersville, Inc., Walkersville, Md.). As a positive control, polymyxin B (Sigma Chemical Co.) was evaluated in parallel with the peptides. Increasing concentrations of peptides or polymyxin B were incubated with 1 ng of highly purified bacterial LPS (Sigma Chemical Co.), derived from E. coli 0111:B4, in a 500 μl reaction volume of endotoxin-free water for 30 min at 37° C. while shaking at 100 rpm. Following the incubation, the amount of free LPS was determined in each sample according to the manufacturer's instructions. Briefly, 50 μl of the above mixture was placed into a 96-well microtiter plate and the reaction initiated by the addition of an equal volume of amoebocyte lysate. Following an incubation at 37° C. for 10 min, 100 μl of chromogenic substrate was added and the plate incubated for 5-10 min at 37° C. The reaction was stopped by the addition of 50 μl of glacial acetic acid and the absorbance measured at a wavelength of 405 nm on a microplate reader (Biotec Instruments, Inc., Winooski, Vt.). The amount of non-bound LPS was extrapolated from a standard curve and the percent inhibition calculated according to the following formula: […]
To determine whether the bBPI peptides were able to neutralize LPS, increasing concentrations of the peptides were incubated with LPS (1 ng) and the resulting mixture assayed with the LAL assay (FIG. 1). As a positive and negative control, respectively, polymyxin B and a non-BPI-derived peptide were also assayed. […] In contrast, bBPI142-169 and bBPI90-99,148-161 were able to neutralize ≧93% of LPS activity at peptide concentrations of 30 and 100 μg/ml, respectively.

## CN(C)[C@@H]1C(O)=C(C(N)=O)C(=O)[C@@]2(O)C(O)=C3C(=O)c4c(O)cccc4[C@@](C)(O)[C@H]3C[C@@H]12 [Tetracycline, reference compound]
[1]
  MIC: 0.25 to 0.5 mg/L (≈ 0.563 to 1.13 µM)
[2]; Klebsiella pneumoniae Isolate #1
  MIC: 64 mg/L (≈ 144 µM)
[2]; Klebsiella pneumoniae Isolate #3
  MIC: 1 mg/L (≈ 2.25 µM)
[2]; Klebsiella pneumoniae Isolate #4
  MIC: 64 mg/L (≈ 144 µM)
[2]; Klebsiella pneumoniae Isolate #5
  MIC: 16 mg/L (≈ 36 µM)
[2]; Klebsiella pneumoniae Isolate #6
  MIC: 0.5 mg/L (≈ 1.13 µM)
[3]; ATCC25922, Escherichia coli ATCC 25922, read-out: MBC
  MBC: 64 mg/L (≈ 144 µM)
[3]; ATCC25922, Escherichia coli ATCC 25922
  MIC: 0.5 to 1 mg/L (≈ 1.13 to 2.25 µM)
[3]; Escherichia coli Isolate #1
  MIC: 4 mg/L (≈ 9 µM)
[3]; Escherichia coli Isolate #2
  MIC: 4 mg/L (≈ 9 µM)
[3]; Escherichia coli Isolate #3
  MIC: 4 mg/L (≈ 9 µM)
[3]; Escherichia coli Isolate #4
  MIC: 4 mg/L (≈ 9 µM)
[3]; Escherichia coli Isolate #5
  MIC: 4 mg/L (≈ 9 µM)
[3]; Escherichia coli Strain P4
  MIC: 1 mg/L (≈ 2.25 µM)
[4]; Enterobacter cloacae Isolate #2, read-out: MIC
  MIC: 4 mg/L (≈ 9 µM)
[4]; Enterobacter cloacae Isolate #4
  MIC: 4 mg/L (≈ 9 µM)
[5]; Serratia marcescens Isolate #1
  MIC: 32 mg/L (≈ 72 µM)
[5]; Serratia marcescens Isolate #2
  MIC: 64 mg/L (≈ 144 µM)
[5]; Serratia marcescens Isolate #3
  MIC: 64 mg/L (≈ 144 µM)
[5]; Serratia marcescens Isolate #4
  MIC: 64 mg/L (≈ 144 µM)
[5]; Serratia marcescens Isolate #5
  MIC: 64 mg/L (≈ 144 µM)
[5]; Serratia marcescens Isolate #6
  MIC: 64 mg/L (≈ 144 µM)
[6]; Pseudomonas aeruginosa Isolate #1
  MIC: 32 mg/L (≈ 72 µM)
[6]; Pseudomonas aeruginosa Isolate #2
  MIC: 16 mg/L (≈ 36 µM)
[6]; Pseudomonas aeruginosa Isolate #3
  MIC: 32 mg/L (≈ 72 µM)
[6]; Pseudomonas aeruginosa Isolate #4
  MIC: 16 mg/L (≈ 36 µM)
[6]; Pseudomonas aeruginosa Isolate #5
  MIC: 32 mg/L (≈ 72 µM)
[6]; Pseudomonas aeruginosa Isolate #6
  MIC: 16 mg/L (≈ 36 µM)

## MCHWAGGASNTGDARGDV FGKQAG (MCHWAGGASNTGDARGDVFGKQAG; listed as Bos sp.) [control peptide, non-BPI-derived control peptide provided by the peptide synthesis company; negative control, reference compound]
[7]; 100 μg/ml, 30 min
  inhibition of LPS activity: no inhibitory effect

## polymyxin B [reference compound]
[7]; increasing concentrations
  inhibition of LPS activity (in words): inhibited LPS activity in dose-dependent manner
